From patent publication US9695218B2, “Pharmaceutical composition for preventing or treating ocular surface disease” (INJE UNIVERSITY INDUSTRY-ACADEMIC COOPERATION FOUNDATION, priority 2014, dated 2017)

Columns and labels:
Assay type in all cases: in vivo, New Zealand white rabbits
[1] = tested on: cornea of alkaline burn rabbit; assay: Clinical evaluation of corneal angiogenesis and opacification in corneal alkaline burn rabbit model; conditions: 10 mg/mL instilled 4 times per day for 10 days, day 17 after alkaline burn; for corneal opacity score (graded 0 through 3): mean±SD, n=5, saline control 3.0±0.0
Description: (§1) 15 New Zealand white rabbits weighing between 2.0 kg and 2.5 kg were purchased from Samtako (Osan, Korea), and then, were subjected to systemic anesthesia by intramuscular injection of a mixture of ketamine hydrochloride (30 mg/kg body weight, Huons, Jecheon, Korea) and xylazine hydrochloride (2.5 mg/kg, Bayer Korea Ltd., Seoul, Korea) and to topical anesthesia by Alcaine propracaine eye drops (Alcon Inc., Seoul, Korea).
(§2) Afterwards, alkaline burn model was developed by applying an 8 mm filter paper soaked in 1 N NaOH to the right central corneas of rabbits for 1 minute. 7 days later, an increase in corneal angiogenesis and corneal opacity upon alkaline burns was confirmed.
(§3) The rabbits were randomly divided into three groups: the alkaline burn group (n=5), the peptide I group (n=5), and the peptide II group (n=5). The alkaline burn group was treated with saline instilled thereto 4 times per day, the peptide I group was treated with 10 mg/mL of peptide SEQ ID NO: 1 instilled thereto 4 times per day, and the peptide II was treated with 10 mg/mL of peptide SEQ ID NO: 2 instilled thereto 4 times per day. The left eyes were used as controls.
7 days after the corneal alkaline burns, clinical evaluation of corneal angiogenesis and opacification was performed.
First, the extent of corneal angiogenesis was scored from 0 through 3, where 0 denotes no angiogenesis, 1 denotes angiogenesis confined to the corneal periphery, 2 denotes angiogenesis extending up to the pupil margin, and 3 denotes angiogenesis extending beyond the pupil margin into the central cornea. In eyes where significant opacification or extensive symblepharon formation caused difficulties in evaluating corneal angiogenesis, a score of 3 was assigned.
In addition, the severity of corneal opacification was graded from 0 through 3, where 0 denotes clear cornea with iris details clearly visualized, 1 denotes partial obscuration of the iris details, 2 denotes iris details poorly seen with the pupil margin just visible, and 3 denotes complete obscuration of iris and pupil details. […]

[2] = tested on: cornea of alkaline burn rabbit; assay: Corneal thickness of H&E-stained tissue sections in corneal alkaline burn rabbit model; conditions: 10th day after treatment, 10 mg/mL instilled 4 times per day, normal 628.0±13.2, alkali burn control 1078.0±30.8
Description: as §1, §2
as §3, with “controls. […]” for “controls.”
The corneal thickness of the tissue sections was measured using photographs obtained by the H&E staining and taken with a virtual microscope (NanoZoomer 2.0 RS, Hamamatsu, Japan) according to the NDP view program (Hamamatsu, USA).

[3] = tested on: fibroblast in the stroma of alkaline burn rabbit cornea; assay: Masson's trichrome staining for fibrotic changes of the cornea following alkali burns; conditions: 10th day after treatment, 10 mg/mL instilled 4 times per day
Description: as §1, §2, §3
(§4) On the 10th day after the treatment as described above, the H&E staining, the Masson's trichrome staining, and immunohistochemistry were performed to observe the fibrosis, angiogenesis, inflammation, and structural changes of the cornea. […]

[4] = tested on: cornea of alkaline burn rabbit; assay: H&E staining for histological changes in cornea following alkaline burn; conditions: 10th day after treatment, 10 mg/mL instilled 4 times per day
Description: as §1, §2, §3, §4

CD31 = assay: Immunohistochemistry of angiogenic marker CD31 in alkaline burn rabbit cornea; conditions: 10 mg/mL instilled 4 times per day, 10th day, compared with the peptide I group
Description: (§5) Ocular tissue sections of an alkaline burn animal model were cut to a thickness of 6 μm, and then, the tissue sections were used for immunohistochemical analysis.
(§6) First, the tissue sections were fixed in 3.5% paraformaldehyde, permeabilized with 0.1% Triton X-100, blocked with 2% bovine serum albumin (BSA; all from Sigma, St. Louis, Mo.), and incubated overnight with the following primary antibodies; anti-CD31 (1:1,000; Abcam Inc., Cambridge, Mass.), anti-MMP-9, anti-ICMA-1, anti-VCAM-1 (1:1,000; from Bioss Antibodies, Woburn, Mass.), anti-TNFα, anti-NF-κB (1:1,000; all from biorbyt LLC, San Franciso, Calif.) anti-macrophage/monocyte (Abnova Crop., Taipei, Taiwan), and anti-VEGF-A (Abbiotec, San Diego, Calif.).
(§7) Next, the tissue sections were incubated with a secondary antibody for 45 minutes. The immunological reactions therein were visualized with diaminobenzidine (DAB) chromogen, and the tissue sections were counterstained with Mayer's hematoxylin (Sigma) for 30 seconds at room temperature.
(§8) The sections were photographed with a virtual microscope (virtual microscope; NanoZoomer 2.0 RS, Hamamatsu, Japan).
(§9) The rabbits were randomly divided into three groups: the alkaline burn group (n=5), the peptide I group (n=5), and the peptide II group (n=5). […]

VEGF = assay: Immunohistochemistry of angiogenic marker VEGF in alkaline burn rabbit cornea; conditions: 10 mg/mL instilled 4 times per day, 10th day, compared with the peptide I group
Description: as §5, §6, §7, §8, §9

macrophages = assay: Immunohistochemistry of macrophages in alkaline burn rabbit cornea; conditions: 10 mg/mL instilled 4 times per day, 10th day
Description: as §5, §6, §7, §8, §9

TNFα = assay: Immunohistochemistry of inflammatory marker TNFα in alkaline burn rabbit cornea; conditions: 10 mg/mL instilled 4 times per day, 10th day
Description: as §5, §6, §7, §8, §9

ICAM-1 = assay: Immunohistochemistry of inflammatory marker ICAM-1 in alkaline burn rabbit cornea; conditions: 10 mg/mL instilled 4 times per day, 10th day
Description: as §5, §6, §7, §8, §9

VCAM-1 = assay: Immunohistochemistry of inflammatory marker VCAM-1 in alkaline burn rabbit cornea; conditions: 10 mg/mL instilled 4 times per day, 10th day
Description: as §5, §6, §7, §8, §9

MMP-9 = assay: Immunohistochemistry of inflammatory marker MMP-9 in alkaline burn rabbit cornea; conditions: 10 mg/mL instilled 4 times per day, 10th day, compared to the peptide I group
Description: as §5, §6, §7, §8, §9

NF-κB = assay: Immunohistochemistry of NF-κB in alkaline burn rabbit cornea; conditions: 10 mg/mL instilled 4 times per day, 10th day, compared to peptide I treatment
Description: as §5, §6, §7, §8, §9

Row | Substance | corneal opacity score (graded 0 through 3) [1] | corneal thickness [2] | fibrotic changes / population of fibroblast in stroma (Masson's trichrome) [3] | histological alterations (epithelial proliferation, infiltration of inflammatory cells, stromal edema, angiogenesis; H&E) [4] | corneal angiogenesis (scored 0 through 3) ([1]; compared to the control group (2.7±0.5)) | expression of CD31 in epithelium, subepithelium and stroma (CD31) | expression of VEGF in epithelium, subepithelium and stroma (VEGF) | expression of macrophages (macrophages) | expression of TNFα (TNFα) | expression of ICAM-1 (ICAM-1) | expression of VCAM-1 (VCAM-1) | expression of MMP-9 (MMP-9) | expression of NF-κB in stroma (NF-κB)
1 | GDRGD (Collagen type I, alpha 1) [peptide I, collagen type I α1 based peptide from CDEM, synthesized; used as comparative group] | 2.1±0.3 | 1066.0±31.7 μm | little effect on the fibrotic changes | little effect |  |  |  |  |  |  |  |  | 
2 | GQDGLAGPK (Collagen type II, alpha 1) [peptide II, collagen type II α1 based peptide isolated from chondrocyte-derived extracellular matrix (CDEM), synthesized] | 1.9±0.6 | 876.0±37.0 μm | significantly suppressed the population of fibroblast | improved | decreased angiogenesis | significantly decreased | significantly decreased | effectively suppressed | decreased | decreased | decreased | suppressed | decreased
